{"source": "PubChem BioAssay AID328", "about": "(DTP/NCI, 2004)", "test_system": "BDF1 mice, P388 leukemia ip, median survival T/C", "assay": "NCI In Vivo Anticancer Drug Screen. Data for tumor model P388 Leukemia (intraperitoneal) in B6D2F1 (BDF1) mice", "settings": "endpoint: median survival time, higher = longer survival", "in_short": "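Read-out is survival of treated animals expressed relative to the vehicle group, as a T/C ratio.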", "key": {"[1]": {"settings": "dose: 100.0 mg/kg/injection, schedule: Q04DX003 (ip), vehicle: Klucel (hydroxypropylcellulose) (HPC)"}, "[2]": {"settings": "dose: 200.0 mg/kg/injection, schedule: Q01DX009 (ip), vehicle: Klucel (hydroxypropylcellulose) (HPC)"}, "[3]": {"settings": "dose: 200.0 mg/kg/injection, schedule: Q04DX003 (ip), vehicle: Klucel (hydroxypropylcellulose) (HPC)"}, "[4]": {"settings": "dose: 400.0 mg/kg/injection, schedule: Q01DX009 (ip), vehicle: Klucel (hydroxypropylcellulose) (HPC)"}, "[5]": {"settings": "dose: 400.0 mg/kg/injection, schedule: Q04DX003 (ip), vehicle: Klucel (hydroxypropylcellulose) (HPC)"}, "[6]": {"settings": "dose: 100.0 mg/kg/injection, schedule: Q01DX005 (ip), vehicle: saline with Tween-80"}, "[7]": {"settings": "dose: 100.0 mg/kg/injection, schedule: Q01DX009 (ip), vehicle: Klucel (hydroxypropylcellulose) (HPC)"}, "[8]": {"settings": "dose: 100.0 mg/kg/injection, schedule: Q04DX003 (ip), vehicle: saline with Tween-80"}, "[9]": {"settings": "dose: 200.0 mg/kg/injection, schedule: Q04DX003 (ip), vehicle: saline with Tween-80"}, "[10]": {"settings": "dose: 400.0 mg/kg/injection, schedule: Q04DX003 (ip), vehicle: saline with Tween-80"}, "[11]": {"settings": "dose: 100.0 mg/kg/injection, schedule: Q04DX003 (ip), vehicle: other"}, "[12]": {"settings": "dose: 200.0 mg/kg/injection, schedule: Q04DX003 (ip), vehicle: other"}}, "note": "“And” between values parts separate entries of the source, which are not always exact repeats. Equal entries are not always repeated. Inconclusive results and toxic doses are left out.", "data": [{"smiles": "CCCCCCCCCCCCCCCCn1/c(=N/N=C/c2ccccc2S(=O)(=O)O)sc2ccccc21", "values": [{"measurement": "T/C", "setting": "[1]", "value": "104 % of control"}, {"measurement": "T/C", "setting": "[2]", "value": "95 % of control"}, {"measurement": "T/C", "setting": "[3]", "value": "118 % of control"}, {"measurement": "T/C", "setting": "[4]", "value": "95 % of control"}, {"measurement": "T/C", "setting": "[5]", "value": "95 % of control"}]}, {"smiles": "C=CCN1C(=O)CN=C1SC(=O)Nc1ccc(Cl)cc1", "values": [{"measurement": "T/C", "setting": "dose: 50.0 mg/kg/injection, schedule: Q01DX005 (ip), vehicle: saline with Tween-80", "value": "97 % of control"}, {"measurement": "T/C", "setting": "[6]", "value": "97 % of control"}]}, {"smiles": "COC(=O)[C@@H]1[C@H](O)[C@H](C)[C@H](O)[C@@](C)(O)/C=C\\C=C(C)C(=O)Nc2c(C)c(OC(C)=O)c3c(c2O)C(=O)C(C)=C2OCOC(=C23)C(C)=C[C@@](C)(O)[C@H](O)[C@@H](C)[C@H]1OC(C)=O", "values": [{"measurement": "T/C", "setting": "[7]", "value": "93 % of control and 105 % of control"}, {"measurement": "T/C", "setting": "[2]", "value": "120 % of control and 108 % of control"}, {"measurement": "T/C", "setting": "[4]", "value": "121 % of control and 113 % of control"}, {"measurement": "T/C", "setting": "dose: 400.0 mg/kg/injection, schedule: Q01DX009 (ip), vehicle: saline", "value": "90 % of control"}]}, {"smiles": "CC(C)CC(Br)C(=O)NC(CC(C)C)C(=O)O", "note": "(stereo not drawn)", "values": [{"measurement": "T/C", "setting": "[8]", "value": "104 % of control"}, {"measurement": "T/C", "setting": "[9]", "value": "100 % of control"}, {"measurement": "T/C", "setting": "[10]", "value": "109 % of control"}]}, {"smiles": "O=C(O)c1[nH]c(=O)[nH]c(=O)c1F", "values": [{"measurement": "T/C", "setting": "dose: 2.5 mg/kg/injection, schedule: Q01DX010 (ip), vehicle: saline", "value": "152 % of control"}, {"measurement": "T/C", "setting": "dose: 10.0 mg/kg/injection, schedule: Q01DX010 (ip), vehicle: saline", "value": "166 % of control"}]}, {"smiles": "CCOC(=O)N(CC)c1ccccc1", "values": [{"measurement": "T/C", "setting": "[1]", "value": "90 % of control"}, {"measurement": "T/C", "setting": "[3]", "value": "104 % of control"}, {"measurement": "T/C", "setting": "[5]", "value": "100 % of control"}]}, {"smiles": "CC1=CC2=NC(=O)C(c3ccccc3)C(=O)N2C=C1", "note": "(stereo not drawn)", "values": [{"measurement": "T/C", "setting": "dose: 25.0 mg/kg/injection, schedule: Q01DX009 (ip), vehicle: Klucel (hydroxypropylcellulose) (HPC)", "value": "100 % of control"}, {"measurement": "T/C", "setting": "dose: 25.0 mg/kg/injection, schedule: Q04DX003 (ip), vehicle: Klucel (hydroxypropylcellulose) (HPC)", "value": "100 % of control"}, {"measurement": "T/C", "setting": "dose: 50.0 mg/kg/injection, schedule: Q01DX009 (ip), vehicle: Klucel (hydroxypropylcellulose) (HPC)", "value": "105 % of control"}, {"measurement": "T/C", "setting": "dose: 50.0 mg/kg/injection, schedule: Q04DX003 (ip), vehicle: Klucel (hydroxypropylcellulose) (HPC)", "value": "100 % of control"}, {"measurement": "T/C", "setting": "[7]", "value": "115 % of control"}, {"measurement": "T/C", "setting": "[1]", "value": "100 % of control"}, {"measurement": "T/C", "setting": "[5]", "value": "88 % of control"}]}, {"smiles": "CC(=O)CC(=O)NCCCc1ccccc1", "values": [{"measurement": "T/C", "setting": "dose: 100.0 mg/kg/injection, schedule: Q04DX003 (sc), vehicle: olive oil, sesame oil, peanut oil", "value": "109 % of control"}, {"measurement": "T/C", "setting": "dose: 200.0 mg/kg/injection, schedule: Q04DX003 (sc), vehicle: olive oil, sesame oil, peanut oil", "value": "100 % of control"}, {"measurement": "T/C", "setting": "dose: 400.0 mg/kg/injection, schedule: Q04DX003 (sc), vehicle: olive oil, sesame oil, peanut oil", "value": "100 % of control"}]}, {"smiles": "O=C(CN1CCCCC1)Nc1nc(-c2ccc(Cl)cc2)cs1", "values": [{"measurement": "T/C", "setting": "[6]", "value": "91 % of control"}]}, {"smiles": "CSc1c(C)[nH]c2c(C)cccc12", "values": [{"measurement": "T/C", "setting": "dose: 50.0 mg/kg/injection, schedule: Q04DX002 (ip), vehicle: saline with Tween-80", "value": "100 % of control"}, {"measurement": "T/C", "setting": "dose: 100.0 mg/kg/injection, schedule: Q04DX002 (ip), vehicle: saline with Tween-80", "value": "100 % of control"}, {"measurement": "T/C", "setting": "dose: 200.0 mg/kg/injection, schedule: Q04DX002 (ip), vehicle: saline with Tween-80", "value": "105 % of control"}]}, {"smiles": "COC(=O)C1=C(C(=O)OC)C2C=CC1C1CC(OC(C)=O)C21", "note": "(stereo not drawn)", "values": [{"measurement": "T/C", "setting": "dose: 50.0 mg/kg/injection, schedule: Q01DX009 (ip), vehicle: saline with Tween-80", "value": "113 % of control"}, {"measurement": "T/C", "setting": "dose: 100.0 mg/kg/injection, schedule: Q01DX009 (ip), vehicle: saline with Tween-80", "value": "113 % of control"}, {"measurement": "T/C", "setting": "dose: 200.0 mg/kg/injection, schedule: Q01DX009 (ip), vehicle: saline with Tween-80", "value": "101 % of control"}]}, {"smiles": "CCC(C)(C)c1ccc(Oc2ccccc2)c(N)c1", "values": [{"measurement": "T/C", "setting": "[11]", "value": "109 % of control"}, {"measurement": "T/C", "setting": "[12]", "value": "113 % of control"}]}, {"smiles": "CC(C)CN1CC(=O)N2CCCN2C(=O)C1", "values": [{"measurement": "T/C", "setting": "dose: 50.0 mg/kg/injection, schedule: Q01DX005 (ip), vehicle: saline", "value": "94 % of control"}, {"measurement": "T/C", "setting": "dose: 100.0 mg/kg/injection, schedule: Q01DX005 (ip), vehicle: saline", "value": "108 % of control"}, {"measurement": "T/C", "setting": "dose: 200.0 mg/kg/injection, schedule: Q01DX005 (ip), vehicle: saline", "value": "103 % of control"}]}, {"smiles": "COC(=O)c1cc(OC)cc(OC)c1", "values": [{"measurement": "T/C", "setting": "[11]", "value": "100 % of control"}, {"measurement": "T/C", "setting": "[12]", "value": "113 % of control"}, {"measurement": "T/C", "setting": "dose: 400.0 mg/kg/injection, schedule: Q04DX003 (ip), vehicle: other", "value": "109 % of control"}]}, {"smiles": "CN1CCOC1=Nc1ccc(Cl)cc1", "values": [{"measurement": "T/C", "setting": "dose: 50.0 mg/kg/injection, schedule: Q04DX003 (ip), vehicle: saline with Tween-80", "value": "104 % of control"}, {"measurement": "T/C", "setting": "[8]", "value": "86 % of control and 100 % of control"}, {"measurement": "T/C", "setting": "[9]", "value": "95 % of control"}, {"measurement": "T/C", "setting": "[10]", "value": "90 % of control"}]}]}
